Laboratory results: patent EP1561465A2, “Methods of use of fluoroquinolone compounds against bacteria” (LG Life Sciences, Ltd., priority 1999, dated 2001)
Values joined by “and” are separate entries in the source; they are usually repeats but may differ in a detail not shown here. Identical values can stand only once. Like-named read-outs stand apart in the source and are kept apart here.

Columns and labels:
Type in all cases: cell-based
[1] = tested on: Staphylococcus epidermidis; assay: MIC by NCCLS broth microdilution, 1100 Japanese clinical isolates 1997-1998; conditions: for MIC50 / MIC90: Staphylococcus epidermidis
[2] = tested on: Moraxella catarrhalis; assay: MIC by two-fold serial agar dilution, Sensitivity Disk agar-N (Kitasato isolates); conditions: Moraxella catarrhalis (22)
[3] = tested on: Streptococcus pneumoniae; assay: MIC by NCCLS reference broth microdilution, 450 respiratory tract pathogens; conditions: Streptococcus pneumoniae
[4] = tested on: Providencia rettgeri; assay: MIC by NCCLS broth microdilution, 1100 Japanese clinical isolates 1997-1998; conditions: Providencia rettgeri (n=12)
[5] = tested on: Gram negative anaerobic pathogens and facultative anaerobic pathogens; assay: MIC by agar dilution, Brucella HK agar with 5% laked sheep blood, anaerobic reference strains
[6] = tested on: Citrobacter freundii; assay: MIC by NCCLS broth microdilution, 1100 Japanese clinical isolates 1997-1998; conditions: Citrobacter freundii (n=39)
[7] = tested on: P. aeruginosa; assay: MIC by two-fold serial agar dilution, quinolone-resistant strains; conditions: Pseudomonas aeruginosa
[8] = tested on: Streptococcus pyogenes; assay: MIC by NCCLS reference broth microdilution, 450 respiratory tract pathogens; conditions: Streptococcus pyogenes
[9] = tested on: Shigella spp.; assay: MIC by NCCLS broth microdilution, 1100 Japanese clinical isolates 1997-1998; conditions: Shigella spp. (n=34)
[10] = tested on: Staphylococcus aureus; assay: MIC by NCCLS reference broth microdilution, 450 respiratory tract pathogens
[11] = Staphylococcus epidermidis oxacillin resistant (n=43)
[12] = Staphylococcus epidermidis oxacillin susceptible (n=35)
[13] = Streptococcus pneumoniae (n = 100)
[14] = erythromycin resistant M phenotype (n = 16)
[15] = erythromycin resistant MLSB phenotype (n = 16)
[16] = penicillin intermediate (n = 16)
[17] = penicillin susceptible (n = 20)
[18] = Streptococcus pyogenes (n = 100)
[19] = erythromycin resistant C phenotype [MLSB] (n = 20)
[20] = erythromycin resistant I phenotype [MLSB] (n = 20)
[21] = erythromycin resistant M phenotype (n = 20)
[22] = β-lactamase positive and erythromycin resistant (n = 10)

C[C@@H]1CN(c2c(F)c(N)c3c(=O)c(C(=O)O)cn(C4CC4)c3c2F)C[C@H](C)N1 [Sparfloxacin, sparfloxacin]
0.06 µg/mL: MIC ([5]; Campylobacter ureolyticus, NCTC10941, Bacteroides ureolyticus NCTC10941, read-out: MIC) | MIC ([5]; Desullomonas pigra DSM749, read-out: MIC)
0.032 to 16 µg/mL: MIC Range [1, 11]
0.25 µg/mL: MIC [3, 14] | MIC50 [3, 14] | MIC90 [3, 14] | MIC50 [3, 15] | MIC90 [3, 15] | MIC50 [3, 17] | MIC90 [3, 17] | MIC50 ([4]; read-out: MIC50) | MIC ([5]; Porphyromonas asaccharolytica, ATCC25260, Porphyromonas asaccharolytica ATCC25260, read-out: MIC) | MIC ([5]; Sutterella wadsworthensis, ATCC51579, Sutterella wadsworthensis ATCC51579, read-out: MIC) | MIC ([5]; Veillonella parvula, ATCC10790, Veillonella parvula ATCC10790, read-out: MIC) | MIC50 ([6]; read-out: MIC50) | MIC50 [8, 19] | MIC90 [8, 19] | MIC50 [10, 22]
0.031 µg/mL: MIC90 [2]
0.125 to 16 µg/mL: MIC Range [4]
0.032 to 8 µg/mL: MIC Range [1, 12]
0.06 to 1 µg/mL: MIC [8, 18] | MIC [8, 20] | MIC ([10]; Staphylococcus aureus (n = 50)) | MIC ([10]; β-lactamase negative (n = 20))
≤0.008 to 0.032 µg/mL: MIC Range [9]
0.063 µg/mL: MIC50 [1, 12]
2 µg/mL: MIC ([5]; Bacteroides fragilis, Bacteroides fragilis GAI30079, read-out: MIC) | MIC ([5]; Bacteroides ovatus, ATCC8483, Bacteroides ovatus ATCC8483, read-out: MIC) | MIC ([5]; Bacteroides thetaiotaomicron, ATCC29741, Bacteroides thetaiotaomicron ATCC29741, read-out: MIC) | MIC ([5]; Parabacteroides distasonis, ATCC8503, Bacteroides distasonis ATCC8503, read-out: MIC) | MIC ([5]; Phocaeicola vulgatus, ATCC8482, Bacteroides vulgatus ATCC8482, read-out: MIC) | MIC ([5]; Prevotella buccaeATCC33574, read-out: MIC) | MIC ([5]; Prevotella corporis, Prevotella corporis GAI91000, read-out: MIC) | MIC ([5]; Prevotella melaninogenica, Prevotella melaninogenica GAI5490, read-out: MIC) | MIC ([5]; Segatella oris, ATCC33573, Prevotella oris ATCC33573, read-out: MIC) | MIC90 [6] | MIC [7]
1 µg/mL: MIC90 ([3]; penicillin resistant (n = 18)) | MIC ([5]; Bacteroides fragilis, ATCC25285, Bacteroides fragilis ATCC25285, read-out: MIC) | MIC ([5]; Bacteroides fragilis, Bacteroides fragilis GA15562, read-out: MIC) | MIC ([5]; Bacteroides fragilis, Bacteroides fragilis GA-I0558, read-out: MIC) | MIC ([5]; Bacteroides fragilis, Bacteroides fragilis GA-I7955, read-out: MIC) | MIC ([5]; Bacteroides fragilis, Bacteroides fragilis GAI10150, read-out: MIC) | MIC ([5]; Bacteroides fragilis, Bacteroides fragilis GAI30144, read-out: MIC) | MIC ([5]; Bacteroides fragilis, NCTC10581, Bacteroides fragilis NCTC10581, read-out: MIC) | MIC ([5]; Bacteroides uniformis, ATCC8492, Bacteroides uniformis ATCC8492, read-out: MIC) | MIC ([5]; Fusobacterium necrophorum, ATCC25286, Fusobacterium necrophorum ATCC25286, read-out: MIC) | MIC ([5]; Fusobacterium nucleatum, ATCC25586, Fusobacterium nucleatum ATCC25586, read-out: MIC) | MIC90 [8, 18] | MIC90 ([8]; fully susceptible (n = 20)) | MIC50 ([8]; multi-drug resistant (n = 20)) | MIC90 ([8]; multi-drug resistant (n = 20))
0.5 to 1 µg/mL: MIC [3, 16]
≤ 0.008 µg/mL: MIC50 [9]
0.016 to 0.031 µg/mL: MIC Range [2]
0.5 µg/mL: MIC50 [3, 13] | MIC90 [3, 13] | MIC50 ([3]; multi-drug resistant (n = 16)) | MIC90 ([3]; multi-drug resistant (n = 16)) | MIC50 [3, 16] | MIC90 [3, 16] | MIC50 ([3]; penicillin resistant (n = 18)) | MIC ([5]; Bilophilla wadsworthia WAL7959, read-out: MIC) | MIC ([5]; Prevotella heparinolytica, ATCC35895, Prevotella heparinolytica ATCC35895, read-out: MIC) | MIC50 [8, 18] | MIC50 [8, 20] | MIC90 [8, 20] | MIC50 [8, 21] | MIC90 [8, 21] | MIC50 ([8]; fully susceptible (n = 20)) | MIC50 ([10]; Staphylococcus aureus (n = 50)) | MIC90 ([10]; Staphylococcus aureus (n = 50)) | MIC50 ([10]; β-lactamase negative (n = 20)) | MIC90 ([10]; β-lactamase negative (n = 20)) | MIC50 ([10]; β-lactamase positive (n = 20)) | MIC90 ([10]; β-lactamase positive (n = 20)) | MIC90 [10, 22]
0.125 µg/mL: MIC ([5]; Veillonella dispar, ATCC17748)
16 µg/mL: MIC90 [4]
0.016 to 4 µg/mL: MIC Range [6]
0.12 to 1 µg/mL: MIC [3, 13] | MIC ([10]; β-lactamase positive (n = 20))
4 µg/mL: MIC50 [1, 11] | MIC90 [1, 12] | MIC ([5]; Bacteroides eggerthii, ATCC27754, Bacteroides eggerthii ATCC27754, read-out: MIC) | MIC ([5]; Hoylesella oralis, ATCC33269, Prevotella oralis ATCC33269, read-out: MIC)
0.032 µg/mL: MIC90 [9]
0.016 µg/mL: MIC50 [2]
2 µg/mL and 0.125 µg/mL: MIC [5]
8 µg/mL: MIC90 [1, 11] | MIC ([5]; Fusobacterium varium, ATCC8501, Fusobacterium varium ATCC8501, read-out: MIC) | MIC ([5]; Prevotella bivia, ATCC29303, Prevotella bivia ATCC29303, read-out: MIC)
0.25 to 1 µg/mL: MIC ([3]; penicillin resistant (n = 18)) | MIC [8, 19] | MIC [8, 21] | MIC ([8]; fully susceptible (n = 20)) | MIC ([8]; multi-drug resistant (n = 20)) | MIC [10, 22]
≤ 0.03 µg/mL: MIC ([5]; Campylobacter gracilis, JCM8538, Campylobacter gracilis JCM8538, read-out: MIC) | MIC ([5]; Capnocytophaga ochracea, Capnocytophaga ochracea GAI5586, read-out: MIC)
0.12 to 0.5 µg/mL: MIC [3, 15] | MIC ([3]; multi-drug resistant (n = 16)) | MIC [3, 17]
